Measured values from patent US20090028925A1, “Novel Phosphinic Acid-Containing Thyromimetics” (priority 2005, published 2009).

What was measured:
[1] = biological target: T1, human thyroid hormone receptors TRα1 (Homo sapiens, UniProt P10827); assay: Receptor binding to TRα1 (gel filtration and scintillation proximity assay, labeled T3); settings: SPA data; read-out: Ki TRα
T1 construct: made in house; host or cells: Sf9 insect cells (baculovirus)
T1 sequence (P10827 1-410 isoform P10827-2): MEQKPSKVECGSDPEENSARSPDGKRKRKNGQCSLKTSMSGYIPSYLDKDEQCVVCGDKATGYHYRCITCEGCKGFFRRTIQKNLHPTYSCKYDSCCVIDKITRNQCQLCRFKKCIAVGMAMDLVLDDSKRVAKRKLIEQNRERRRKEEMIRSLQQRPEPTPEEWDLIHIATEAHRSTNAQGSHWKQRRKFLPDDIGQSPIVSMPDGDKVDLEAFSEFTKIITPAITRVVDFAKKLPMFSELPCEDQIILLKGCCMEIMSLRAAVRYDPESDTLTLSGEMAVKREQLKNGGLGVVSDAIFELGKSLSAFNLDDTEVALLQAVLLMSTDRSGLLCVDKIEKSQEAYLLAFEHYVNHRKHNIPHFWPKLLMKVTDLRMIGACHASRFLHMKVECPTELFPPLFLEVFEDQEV
T1 sequence (P19793 1-462 partner): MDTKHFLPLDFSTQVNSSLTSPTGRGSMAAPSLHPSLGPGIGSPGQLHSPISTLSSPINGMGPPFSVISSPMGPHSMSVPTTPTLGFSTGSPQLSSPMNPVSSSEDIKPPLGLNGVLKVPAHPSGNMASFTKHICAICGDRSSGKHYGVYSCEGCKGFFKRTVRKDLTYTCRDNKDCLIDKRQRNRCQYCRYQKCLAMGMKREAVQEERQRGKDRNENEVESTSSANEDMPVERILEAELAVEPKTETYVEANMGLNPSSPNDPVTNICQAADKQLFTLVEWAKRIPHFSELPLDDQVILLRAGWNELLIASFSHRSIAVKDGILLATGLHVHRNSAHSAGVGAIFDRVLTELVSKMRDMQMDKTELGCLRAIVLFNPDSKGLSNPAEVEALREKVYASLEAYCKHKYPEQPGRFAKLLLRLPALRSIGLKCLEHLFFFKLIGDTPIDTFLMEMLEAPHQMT

[2] = test system: heart mGPDH activity; assay: Subacute study in normal rats, continuous infusion: heart mGPDH activity; format: in vivo, rats (Sprague-Dawley); settings: continuous infusion 1 mg/kg/day
Source text: (§1) Efficacy endpoints include serum cholesterol, liver mitochondrial glycerol phosphate dehydrogenase (mGPDH) activity and the expression of relevant liver genes (e.g., the LDL-receptor, apoB, cpt-1, spot14 and apoAI). Safety parameters include heart weight, heart rate, heart mGPDH activity, the expression and key genes involved in cardiac structure and function (e.g., Serca2, HCN2, Kv1.5, MHCα, MHCβ, Alpha1c), and standard plasma chemistry analysis (liver enzymes, electrolytes, creatinine). Endocrine effects are monitored by analysis of serum thyroid stimulating hormone (TSH). [Taylor et al., Mol Pharmacol 52(3): 542-7 (1997); Weitzel et al., Eur J Biochem 268(14):4095-4103 (2001)]
Methods: mGPDH activity was analyzed in isolated mitochondria using 2-(4-iodophenyl)-3-(4-nitrophenyl)-5-phenyl tetrazolium chloride as the terminal electron acceptor (Gardner R S, Analytical Biochemistry 59:272 (1974)). Commercially available GPDH was used in each assay as a standard (Sigma, St. Louis, Mo.). Changes in levels of mRNA for liver and heart genes are analyzed using reverse transcriptase followed by real-time PCR analysis. The analysis is performed using an iCycler instrument (Biorad) and appropriate primers by means of standard methodology [e.g., Schwab D A et al. (2000) Life Sciences 66: 1683-94]. The amounts of mRNA are normalized to an internal control, typically, cyclophilin. Serum TSH is measured using an enzyme immunoassay (EIA) kit designed for rat TSH (Amersham Pharmacia Biotech, Arlington Heights, Ill.).
(§2) Normal rats (Sprague-Dawley) were maintained on a standard diet. […] The compounds were brought up to an appropriate volume using PBS and BSA to maintain solubility within the pump. The compounds were chemically stable in the excipient at 37° C. for 7 days.
(§3) Values are expressed as percent of control. (Table 4)

[3] = Subacute study in normal rats, continuous infusion: heart weight; format: in vivo, rats (Sprague-Dawley); settings: continuous infusion 1 mg/kg/day
Source text: as §1, §2, §3

[4] = Liver distribution following oral administration; format: in vivo; settings: liver levels of Compound 7, normal rats, oral 10 mg/kg
Protocol: Liver levels of Compound 7 were assessed in normal rats following oral administration of the HepDirect™ or other prodrugs. The levels were used to estimate potential efficacy. Liver levels were assessed by LC-MS using the 363.3/63.0 peak area to estimate levels of Compound 7 generated by orally administered prodrugs.

[5] = Tissue distribution and pharmacokinetics following IP administration to normal rats; format: in vivo, SD rats; settings: 10 mg/kg IP
Source text: At pre-selected time points following dosing, the rats were anesthetized using iso-fluorane and the peritoneal cavity was then opened and a blood sample was obtained from the abdominal vena cava. In addition, liver, kidney, and heart were excised and immersed in 3 volumes of cold 60% acetonitrile. The blood samples were briefly centrifuged and the plasma fraction was then extracted with 1.5 volumes of methanol, processed, and analyzed by LC-UV as described in Example G. The frozen liver, kidney, and heart tissue were homogenized in 60% v/v acetonitrile, centrifuged, and then analyzed by LC-UV. Pharmacokinetic parameters and AUC of the plasma and tissue concentration-time profiles were determined noncompartmentally by WinNonLin.

[6] = Subacute study in cholesterol-fed rats, IP: heart weight and heart mGPDH activity

Cc1cc(OCP(=O)(O)O)cc(C)c1Cc1ccc(O)c(C(C)C)c1 [Compound 7, [3,5-dimethyl-4-(4′-hydroxy-3′-iso-propylbenzyl)phenoxy]methylphosphonic acid]
Ki [1]: 58 nM
Heart GPDH [2]: 112% of control
Heart Weight [3]: 108% of control
cardiac hypertrophy [3]: did not cause cardiac hypertrophy
Liver Levels (ug/g) (10 mg/kg@1.5 h) [4]: Not Detected
Heart AUC [5]: 32.8 nmol·h/g
Kidney AUC [5]: 5.0 nmol·h/g
Liver AUC [5]: 301.7 nmol·h/g
AUC ([5]; male, SD, rat, plasma): 31600 ng·h/mL
Cmax ([5]; male, SD, rat, plasma): 26000 ng/mL
Tmax ([5]; male, SD, rat, plasma): 20 min
CL/F ([5]; male, SD, rat, plasma, read-out: Cl(observed)/F (converted)): 5.01 mL/min/kg
Vd/F ([5]; male, SD, rat, plasma, read-out: Vz(observed)/F): 0.401 L/kg
AUMClast ([5]; plasma): 33.7098 μg * hr^2/mL
Tlast ([5]; plasma): 4 h
cardiac hypertrophy ([6]; IP once-a-day for seven days): No cardiac hypertrophy was observed
therapeutic window between efficacy (cholesterol lowering) and toxicity (cardiac hypertrophy, heart GPDH) ([6]; IP seven days): 10- to 100 fold
heart GPDH activity ([6]; IP, 100 mg/kg): trend towards increased heart GPDH activity
adverse cardiac effects ([6]; IP, any dose): No adverse cardiac effects were observed
